Data on 7 compounds can be found in patent US20240067632A1, “WEE1 Degrading Compounds and Uses Thereof” (Bristol-Myers Squibb Company, priority 2022, published 2024).

In one assay the target is T1, WEE1 (Homo sapiens, UniProt P30291+Q96SW2).
T1 construct: C-terminal ePL-tagged (DiscoverX, Fremont, CA) full-length WEE1 expression construct; expressed in transfected cells; host or cells: LentiX-HEK293T (Invitrogen), lentiviral transduction; co-expressing GSPT1-GN (G576N, lacking the first 158 amino acids)
Kind of assay: WEE1-ePL degradation assay (LentiX-WEE1-ePL-GSPT1-ND cells, InCELL Hunter luminescence, 4 h). The note with it: 293T-LentiX WEE1-ePL cells; for DC50: read-out: 293T-LentiX WEE1-ePL Degradation 4 hr (EC50). Type of assay: cell-based. In outline: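 LentiX-HEK293T cells stably expressing C-terminally ePL-tagged full-length WEE1 were treated with compounds in a 10-point, 3-fold dilution series starting at 1 uM or 10 uM for 4 h at 37 °C. Remaining WEE1-ePL was detected by InCELL Hunter luminescence, and EC50, Ymin and Ymax came from a four-parameter logistic fit against DMSO control.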

In a further assay the test system is MKN45 cells. Nature of the assay: MKN45 cell proliferation assay (Cell-Titer-Glo, 120 h). Type of assay: cell-based. The note with it: for pEC50: Homo sapiens, MKN-45, 120 h, Cell-Titer-Glo, read-out: MKN45 Cell Prolif. 120 hr (EC50); for MKN45 Cell Prolif. 120 hr (Ymin-Obs): minimal percent of DMSO control observed in the concentrations tested. In outline:
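Growth inhibition was read as blank-corrected Cell-Titer-Glo luminescence expressed as percent DMSO control after 120 h at 37 C, 400 cells/well. Compounds tested in triplicate as 10-point half-log series from 1 or 10 uM, 0.1% DMSO; four-parameter fit gave EC50, and lowest observed percent control was reported as Ymin-obs.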

[1] abbreviates: lower limit of the fit (0 = luciferase inhibitor, Ymax = DMSO control).

For orientation: pEC50 means the EC50 on a negative log10 scale, so that one unit is a factor of ten.

pEC50: −log10 of the molar value. Read-outs that look alike come from different tables or passages of the source.

Take `O=C1CCC(N2Cc3cc(O[C@H]4CCN(Cc5ccc6nc([C@@H]7CCCOC7)ncc6c5)C4)ccc3C2=O)C(=O)N1` (stereo partly drawn) [3-(5-{[(3S)-1-({2-[(3S)-oxan-3-yl]quinazolin-6-yl}methyl)pyrrolidin-3-yl]oxy}-1-oxo-2,3-dihydro-1H-isoindol-2-yl)piperidine-2,6-dione]: at WEE1 (setting [1]), the “293T-LentiX WEE1-ePL Degradation 4 hr (Ymin)” value came to 31. Besides, on WEE1, the DC50 worked out at 33.8 nM. Besides, the pEC50 in the assay on MKN45 cells (growth inhibition) is 7.71. For the same compound, the “MKN45 Cell Prolif. 120 hr (Ymin-Obs)” value in the assay with MKN45 cells is on record as 5.31.

As for `O=C1CCC(N2Cc3cc(O[C@H]4CCN(Cc5cnc6ccccc6n5)C4)ccc3C2=O)C(=O)N1` (stereo partly drawn) [3-(1-oxo-5-{[(3S)-1-[(quinoxalin-2-yl)methyl]pyrrolidin-3-yl]oxy}-2,3-dihydro-1H-isoindol-2-yl)piperidine-2,6-dione], the “293T-LentiX WEE1-ePL Degradation 4 hr (Ymin)” value on WEE1 (setting [1]) is on record as 43.82. Further, the DC50 on WEE1 was found to be 46.9 nM. Also, the pEC50 in the assay with MKN45 cells (growth inhibition) was less than 5.00. For the same compound, in the assay on MKN45 cells, the “MKN45 Cell Prolif. 120 hr (Ymin-Obs)” value was 64.16.

In the case of `CC1(C)C[C@@H](c2ccc3cc(CN4CC[C@H](Oc5ccc6c(c5)CN([C@H]5CCC(=O)NC5=O)C6=O)C4)cc(F)c3n2)CCO1` [(3S)-3-(5-{[(3S)-1-({2-[(4S)-2,2-dimethyloxan-4-yl]-8-fluoroquinolin-6-yl}methyl)pyrrolidin-3-yl]oxy}-1-oxo-2,3-dihydro-1H-isoindol-2-yl)piperidine-2,6-dione], the “293T-LentiX WEE1-ePL Degradation 4 hr (Ymin)” value on WEE1 (lower limit of the fit (Ymin=0 luciferase inhibitor, Ymax DMSO control)) is given as 28.17. At WEE1, the DC50 amounted to 3.8 nM. In addition, in the assay with MKN45 cells, the pEC50 was 8.78 and the “MKN45 Cell Prolif. 120 hr (Ymin-Obs)” value amounted to 9.621.

On to `O=C1CCC(N2Cc3cc(O[C@H]4CCN(Cc5ccc6nc(N7CCCC78CCOCC8)ccc6c5)C4)ccc3C2=O)C(=O)N1` (stereo partly drawn) [3-(5-{[(3S)-1-[(2-{8-oxa-1-azaspiro[4.5]decan-1-yl}quinolin-6-yl)methyl]pyrrolidin-3-yl]oxy}-1-oxo-2,3-dihydro-1H-isoindol-2-yl)piperidine-2,6-dione], for which the “293T-LentiX WEE1-ePL Degradation 4 hr (Ymin)” value on WEE1 (setting [1]) worked out at 47. For the same compound, the DC50 at WEE1 stood at 11.3 nM. Moreover, the pEC50 in the assay on MKN45 cells (growth inhibition) was 7.81. The “MKN45 Cell Prolif. 120 hr (Ymin-Obs)” value with MKN45 cells is reported as 20.2.

As to `O=C1CCC(N2Cc3cc(O[C@H]4CCN(Cc5ccc6nc(CO[C@@H]7CCOC7)ccc6c5)C4)ccc3C2=O)C(=O)N1` (stereo partly drawn) [3-(1-oxo-5-{[(3S)-1-[(2-{[(3R)-oxolan-3-yloxy]methyl}quinolin-6-yl)methyl]pyrrolidin-3-yl]oxy}-2,3-dihydro-1H-isoindol-2-yl)piperidine-2,6-dione], the “293T-LentiX WEE1-ePL Degradation 4 hr (Ymin)” value at WEE1 (setting [1]) is given as 30. Also, at WEE1, the DC50 came to 4.51 nM. Besides, the pEC50 in the assay with MKN45 cells (growth inhibition) was 8.58. Also, the “MKN45 Cell Prolif. 120 hr (Ymin-Obs)” value in the assay on MKN45 cells turned out to be 6.56.

Turning to `Cc1ccc2cc(CN3CC[C@H](Oc4ccc5c(c4)CN(C4CCC(=O)NC4=O)C5=O)C3)cc(F)c2n1` (stereo partly drawn) [3-(5-{[(3S)-1-[(8-fluoro-2-methylquinolin-6-yl)methyl]pyrrolidin-3-yl]oxy}-1-oxo-2,3-dihydro-1H-isoindol-2-yl)piperidine-2,6-dione], the “293T-LentiX WEE1-ePL Degradation 4 hr (Ymin)” value on WEE1 (setting [1]) is recorded as 25.35. For the same compound, the DC50 on WEE1 amounted to 1.04 nM. Also, in the assay with MKN45 cells (growth inhibition), the pEC50 is 8.50. For the same compound, the “MKN45 Cell Prolif. 120 hr (Ymin-Obs)” value in the assay on MKN45 cells is recorded as 7.555.

As to `O=C1CCC(N2Cc3cc(O[C@H]4CCN(Cc5ccc6nc(N7C[C@H]8CC[C@@H](C7)O8)ccc6c5)C4)ccc3C2=O)C(=O)N1` (stereo partly drawn) [3-(5-{[(3S)-1-({2-[(1R,5S)-8-oxa-3-azabicyclo[3.2.1]octan-3-yl]quinolin-6-yl}methyl)pyrrolidin-3-yl]oxy}-1-oxo-2,3-dihydro-1H-isoindol-2-yl)piperidine-2,6-dione], the “293T-LentiX WEE1-ePL Degradation 4 hr (Ymin)” value at WEE1 (setting [1]) was 37. Also, the DC50 on WEE1 stood at 6.5 nM. For the same compound, in the assay on MKN45 cells (growth inhibition), the pEC50 is 8.19. The “MKN45 Cell Prolif. 120 hr (Ymin-Obs)” value in the assay on MKN45 cells turned out to be 11.085.
